In patent publication US7855297B2, “Amide derivatives and medicinal use thereof” (Mitsubishi Tanabe Pharma Corporation, priority 2000, dated 2010):

Columns and labels:
C5a receptor = target: T1, C5a receptor (Homo sapiens, UniProt P21730); experiment: C5a receptor binding assay ([125I]-human C5a, dcAMP-U937 cells); details: [125I]-C5a 200 pM, 4° C., 2 hr, read-out: IC50 value, concentration at which binding of [125I]-human C5a is inhibited by 50%
T1 construct: U-937 cell was stimulated with 1 mM dibutyryl cyclic AMP (dcAMP, SIGMA) for 2 days to express the C5a receptor; endogenous in cells; host or cells: U-937 cells (human histiocytic lymphoma) differentiated with 1 mM dibutyryl cAMP for 2 days; whole cells, stored frozen and thawed before use
T1 sequence (P21730 1-350): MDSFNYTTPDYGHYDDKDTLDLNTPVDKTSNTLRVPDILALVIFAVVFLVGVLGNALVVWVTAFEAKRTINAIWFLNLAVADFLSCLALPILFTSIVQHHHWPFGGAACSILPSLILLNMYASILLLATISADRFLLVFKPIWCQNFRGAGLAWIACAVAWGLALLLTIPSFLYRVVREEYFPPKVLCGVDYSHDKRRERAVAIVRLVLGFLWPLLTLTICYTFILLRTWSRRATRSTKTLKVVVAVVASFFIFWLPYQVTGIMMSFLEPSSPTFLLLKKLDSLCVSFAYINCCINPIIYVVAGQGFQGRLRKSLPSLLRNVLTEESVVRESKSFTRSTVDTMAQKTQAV
Experimental: The C5a receptor binding inhibitory action of C5a and the test compound was evaluated by a receptor binding assay comprising reacting human cell line U-937 (human histiocytic lymphoma line), which expresses the C5a receptor, with [^125I]-human C5a (Amersham Pharmacia Biotech) in a MultiScreen (MILLIPORE). First, U-937 cell was stimulated with 1 mM dibutyryl cyclic AMP (dcAMP, SIGMA) for 2 days to express the C5a receptor (dcAMP-U937 cell), and suspended in a binding buffer [50 mM HEPES, 1 mM CaCl2, 5 mM MgCl2, 0.5% bovine albumin (BSA, SIGMA), 0.02% NaN3 (pH 7.2)] and stored at −80° C. […] After drying the MultiScreen, the radioactivity on the filter was measured using a gamma counter.
The rate (% inhibition) of inhibition of C5a binding by the test compound was calculated by the following formula using the count value obtained without addition of the test compound as Total, the count value obtained with addition of non-labeled C5a as Non, and the count value obtained with addition of the test compound as Test. % Inhibition=100−[(Test-Non)/(Total-Non)]×100 […]

[1] = tested on: C5a stimulated neutrophil; experiment: Production of reactive oxygen species in C5a stimulated neutrophil; type: cell-based; details: human neutrophils, C5a 3 nmol/L, luminol luminescence; read-out: IC50 value, concentration at which production of reactive oxygen species in C5a stimulated neutrophil is inhibited by 50%
Experimental: A neutrophil fraction was separately taken from human peripheral venous blood using Lympholyte-poly (Cedarlane), and suspended in Hank's Balanced Salt Solution (HBSS, GIBCO BRL) containing 1% fetal bovine serum (FBS) and 1 mmol/L of luminol (Wako Pure Chemical Industries, Ltd.). Reactive oxygen species was measured using a luminometer (MicroLumat, Berthold) for 96 well plate. […] Then, 25 μL of C5a (final concentration 3 nmol/L) was added and luminescence produced by the reaction of the luminol and the reactive oxygen species was measured with the lapse of time for 15 min. The rate (% inhibition) of inhibition of the production of reactive oxygen species in C5a stimulated neutrophil by the test compound was calculated by the following formula, wherein the peak value of the production of reactive oxygen species derived by C5a without addition of the test compound is Max, the peak value of the production of reactive oxygen species without addition of the test compound and without C5a stimulation is Min, and the peak value of the production of reactive oxygen species derived by C5a with the addition of the test compound is Test. % Inhibition=100−[(Test-Min)/(Max-Min)]×100 […]

[2] = tested on: C5a-stimulated neutrophil; experiment: Migrating ability of C5a-stimulated neutrophil; type: cell-based; details: 1.5 h, human neutrophils, C5a 100 pmol/L, 90 min, read-out: IC50 value, concentration at which migration of C5a-stimulated neutrophil is inhibited by 50%
Experimental: A neutrophil fraction was separately taken from human peripheral venous blood using Lympholyte-poly (Cedarlane) and suspended in RPMI 1640 medium (GIBCO BRL) supplemented with 0.1% bovine serum albumin (BSA). To. this neutrophil fraction (5×10^6 cells/mL) was added Calcein-AM (final concentration 5 μM, FUNAKOSHI), and the mixture was incubated at 37° C. for 30 min. The cells were washed by centrifugation and suspended to a concentration of 1×10^6 cells/mL. The migration was evaluated by adding neutrophils to chemotaxicell (pore size: 3 μm, KURABO) and measuring the neutrophils that migrated outside the chemotaxicell. First, 100 pmol/L of C5a solution was added to 24 well plate (500 μL/well) and chemotaxicell was set in the well. […] The fluorescent intensity of each well was measured by Cyto Fluor II (Ex: 485, Em: 530). The rate (% inhibition) of the inhibition of migration of C5a-stimulated neutrophil by the test compound was calculated by the following formula, wherein the fluorescence intensity of neutrophil that migrated by C5a stimulation without addition of the test compound is Max, the fluorescent intensity of neutrophil that migrated without addition of test compound and without C5a stimulation is Min, and the fluorescent intensity of neutrophil that migrated by C5a stimulation with the addition of the test compound is Test. % Inhibition=100−[(Test-Min)/(Max-Min)]×100 […]

With `CC(C)c1ccc(N(Cc2ccc(N(C)C)cc2)C(=O)C2CCCc3ccccc32)cc1` (stereo not drawn) [Example 4, N-[(4-dimethylaminophenyl)methyl]-N-(4-isopropylphenyl)-1,2,3,4-tetrahydronaphthalene-1-carboxamide] the IC50 (C5a receptor) was 104 nM, the IC50 [1] was 10 nM and the IC50 [2] was 100 nM.
